# Source: ChEMBL document CHEMBL1201862, “PubChem BioAssay data set” (2004)
# Activity calls are given as the source filed them.
# Assays:
# [1] = biological target: T1, Tyrosine-protein phosphatase non-receptor type 7 (Homo sapiens, UniProt P35236); type: functional
# T1 sequence (P35236 whole entry): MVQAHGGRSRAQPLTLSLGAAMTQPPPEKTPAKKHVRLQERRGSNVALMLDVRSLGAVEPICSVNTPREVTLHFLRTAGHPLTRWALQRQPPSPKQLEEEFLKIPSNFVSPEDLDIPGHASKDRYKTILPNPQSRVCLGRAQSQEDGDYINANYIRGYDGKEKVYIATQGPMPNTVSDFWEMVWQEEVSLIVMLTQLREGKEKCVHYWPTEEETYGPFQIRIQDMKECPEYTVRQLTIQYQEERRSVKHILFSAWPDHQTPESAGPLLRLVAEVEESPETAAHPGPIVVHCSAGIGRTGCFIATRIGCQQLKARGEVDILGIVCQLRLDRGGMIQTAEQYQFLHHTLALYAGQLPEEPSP
# [2] = biological target: T2, Carboxy-terminal domain RNA polymerase II polypeptide A small phosphatase 1 (Homo sapiens, UniProt Q9GZU7); assay: inhibitors of CTDSP1, concentration-response testing, biochemical assay, absorbance-based, actives from ultra-high-throughput screening (AID 540297); type: functional
# T2 sequence (Q9GZU7 whole entry): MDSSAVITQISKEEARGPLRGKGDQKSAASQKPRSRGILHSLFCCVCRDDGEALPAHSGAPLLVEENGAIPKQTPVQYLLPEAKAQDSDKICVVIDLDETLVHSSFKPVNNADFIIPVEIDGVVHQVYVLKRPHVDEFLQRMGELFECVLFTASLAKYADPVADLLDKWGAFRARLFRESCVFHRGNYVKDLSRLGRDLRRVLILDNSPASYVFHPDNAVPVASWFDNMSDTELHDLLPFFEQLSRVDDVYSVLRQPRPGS
# [3] = biological target: Induced myeloid leukemia cell differentiation protein Mcl-1 (Homo sapiens, UniProt Q07820); type: functional
# Genome polyprotein = Genome polyprotein (dengue virus type 2, UniProt P29990); assay: Dengue-2 NS5 methyltransferase inhibitors, primary screen, biochemical, confirmation dose response (AID 588689); type: functional
# [4] = biological target: Glyceraldehyde-3-phosphate dehydrogenase (Homo sapiens, UniProt P04406)
# [5] = biological target: T3, Dual specificity protein phosphatase 6 (Rattus norvegicus, UniProt Q64346);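 note: in vitro confirmatory secondary MKP-3 assay designed to detect irreversible or slow-binding inhibitors; recombinant His-tagged rat MKP-3 acting on the substrate OMFP; inhibitor potency from reduced phosphatase rate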
# T3 sequence (Q64346 whole entry): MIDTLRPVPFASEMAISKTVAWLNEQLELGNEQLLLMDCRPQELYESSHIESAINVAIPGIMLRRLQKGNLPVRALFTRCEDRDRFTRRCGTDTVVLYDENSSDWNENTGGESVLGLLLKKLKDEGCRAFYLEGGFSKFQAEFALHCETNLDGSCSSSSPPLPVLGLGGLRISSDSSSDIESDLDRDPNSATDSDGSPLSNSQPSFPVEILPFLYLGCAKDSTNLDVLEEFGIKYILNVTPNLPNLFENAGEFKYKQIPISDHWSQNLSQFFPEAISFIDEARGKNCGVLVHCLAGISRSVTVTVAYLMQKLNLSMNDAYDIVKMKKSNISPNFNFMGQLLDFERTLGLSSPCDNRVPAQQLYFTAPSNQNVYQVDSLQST
# [6] = biological target: Acyl-homoserine lactone acylase PvdQ (Pseudomonas aeruginosa (strain LESB58), UniProt Q9I194); assay: P. aeruginosa PvdQ acylase inhibitors, dose response, biochemical, fluorescence, plate reader and imaging, cherry-picks (AID 493231)
# [7] = biological target: Intestinal-type alkaline phosphatase (Homo sapiens, UniProt P09923); assay: Dose Response confirmation of uHTS hits from a small molecule inhibitors of human intestinal alkaline phosphatase via a luminescent assay. [Related pubchem assays (depositor defined):AID2544, AID2574]; type: functional
# [8] = biological target: T4, Dual specificity protein phosphatase 3 (Homo sapiens, UniProt P51452); assay: SAR VHR1 Fluorescent Assay for In Vitro dose response studies Set 2. [Related pubchem assays (depositor defined):AID1654, AID1661, AID1878]; type: functional
# [9] = biological target: T1, Tyrosine-protein phosphatase non-receptor type 7; assay: SAR analysis of chemical inhibitors of HePTP using a Fluorescent assay - Set 2. [Related pubchem assays (depositor defined):AID1059, AID1077, AID1661, AID2085, AID521]; type: functional
# [10] = biological target: Cyclin-dependent kinase 5/CDK5 activator 1 (Homo sapiens, UniProt Q00535); assay: CDK5/p35 kinase inhibitors, dose response, biochemical, cherry-picked samples, set 2 (AID 504545)
# Neutrophil collagenase = Neutrophil collagenase (Homo sapiens, UniProt P22894); assay: MMP13 inhibition and MMP selectivity, late-stage follow-up, selectivity assay for MMP13 inhibitor project, biochemical, probe development, late stage results, panel member MMP-8 [IC50 Assay] (AID 2067)
# Collagenase 3 = Collagenase 3 (Homo sapiens, UniProt P45452); assay: MMP13 inhibition and MMP selectivity, late-stage follow-up, selectivity assay for MMP13 inhibitor project, biochemical, probe development, late stage results, panel member MMP-13 [IC50 Assay] (AID 2067)
# Trypanosoma cruzi = assay: growth inhibition of intracellular Trypanosoma cruzi, dose response, cell-based, plate reader, dry powder, set 3 (AID 493197); type: functional
# [11] = biological target: Kappa-type opioid receptor (Homo sapiens, UniProt P41145); assay: SAR analysis of small molecule agonists of the kappa opioid receptor via a luminescent beta-arrestin assay - Set 2. [Related pubchem assays (depositor defined):AID1777, AID1785, AID1786, AID1966, AID2133, AID2136, AID2284, AID449737]; type: functional
# HEK293 [12] = assay: cells; type: functional, cell-based; details: Homo sapiens
# INS1 = assay: beta cell apoptosis inhibitors, cytokine rescue, dose response, luminescence, retest (AID 449756); type: functional, cell-based; details: Rattus norvegicus;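 note: cell death triggered by IL-1 beta plus TNF-alpha plus IFN-gamma mixture; protective hits raise ATP signal compared with cytokine alone wells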
# HEK293 [13] = assay: cells; type: functional, cell-based; details: Homo sapiens; remark: listed apart in the source
# HEK293 [14] = assay: cells; type: functional, cell-based; details: Homo sapiens; remark: listed apart in the source
# HEK293 [15] = assay: NOD1 signaling inhibitors, primary screen, cell-based, luminescence, uHTS (AID 1578); type: functional; details: Homo sapiens
# [16] = biological target: Scavenger receptor class B member 1 (Mus musculus, UniProt Q61009); assay: inhibitors of SR-BI mediated HDL lipid uptake, dose response, ldlA[mSR-BI] cells, fluorescence, cherry pick (AID 493194); type: functional, cell-based;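 note: cellular uptake of fluorescent DiI-labeled HDL measured as cell fluorescence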
# HEK293 [17] = assay: NOD2 signaling inhibitors in MDP-stimulated cells, cell-based, uHTS, luminescence (AID 2001); type: functional; details: Homo sapiens
# [18] = biological target: Nucleotide-binding oligomerization domain-containing protein 2 (Homo sapiens, UniProt Q9HC29); assay: NOD2 signaling inhibitors, cell-based, luminescence, uHTS, HEK293 (AID 1566); type: functional
# Paired box protein Pax-8 = Paired box protein Pax-8 (Homo sapiens, UniProt Q06710); assay: inhibitors of PAX8-driven TPO luciferase reporter, dose response, RMG-I cells, cherry-pick (AID 687027); type: functional, cell-based;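 note: luciferase reporter driven by Pax8 target thyroperoxidase promoter measured by SteadyGlo luminescence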
# [19] = biological target: Melanin-concentrating hormone receptor 1 (Homo sapiens, UniProt Q99705); assay: Late-stage fluorescence-based counterscreen for antagonists of the G-protein coupled receptor 7 (GPR7): cell-based dose response assay to identify antagonists of the melanin-concentrating hormone receptor 1 (MCHR1). [Related pubchem assays (depositor defined):AID1861, AID1880, AID1952, AID2148, AID2251, AID2257, AID485339]; type: functional;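 note: stimulated with 30 nM MCH peptide agonist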
# [20] = biological target: T5, Neuropeptides B/W receptor type 1 (Homo sapiens, UniProt P48145); assay: GPR7 antagonist potency, late-stage follow-up, cell-based, fluorescence, dose response (AID 463251); type: functional
# T5 sequence (P48145 whole entry): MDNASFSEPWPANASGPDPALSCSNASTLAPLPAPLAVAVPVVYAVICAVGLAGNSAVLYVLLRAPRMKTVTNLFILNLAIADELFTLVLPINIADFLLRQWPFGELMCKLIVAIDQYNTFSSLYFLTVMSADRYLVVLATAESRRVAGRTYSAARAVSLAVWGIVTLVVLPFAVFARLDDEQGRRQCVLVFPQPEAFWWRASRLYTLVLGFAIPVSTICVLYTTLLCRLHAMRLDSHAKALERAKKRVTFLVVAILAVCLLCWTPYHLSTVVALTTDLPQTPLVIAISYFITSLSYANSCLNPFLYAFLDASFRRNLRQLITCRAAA
# [21] = Luminescence Cell-Based Dose Response HTS to Identify Activators of Luciferase Translation or Activity in H4 […] Cells. [Related pubchem assays: 1829 (Project Summary), 1814 (Primary HTS)]; type: functional
# H4 = assay: Luminescence Cell-Based Dose Response HTS to Identify Activators of 5'UTR Stem-Loop Driven Prion Protein mRNA Translation in H4 Neuroglioblastoma Cells. [Related pubchem assays: 1829 (Project Summary), 1814 (Primary HTS)]; type: functional; details: Homo sapiens
# [22] = Luminescence Cell-Based Dose Response HTS to Identify Activators of Luciferase Translation or Activity in H4-C Neuroglioblastoma Cells. [Related pubchem assays: 1829 (Project Summary), 1814 (Primary HTS)]; type: functional
# [23] = Luminescence Cell-Based Dose Confirmation HTS to Identify Activators of 5'UTR Stem-Loop Driven Alpha-Synuclein mRNA Translation in H4 Neuroglioblastoma Cells. [Related pubchem assays: 1829 (Project Summary), 1814 (Primary HTS)]; type: functional
# [24] = Luminescence Cell-Based Dose Retest to Confirm Activators of 5'UTR Stem-Loop Driven Alpha-Synuclein mRNA Translation in H4 Neuroglioblastoma Cells. [Related pubchem assays (depositor defined):AID1813, AID1829]; type: functional
# [25] = Luminescence Cell-Based Dose Response HTS to Identify Activators of 5'UTR Stem-Loop Driven Prion Protein mRNA Translation in H4-C Neuroglioblastoma Cells. [Related pubchem assays: 1829 (Project Summary), 1814 (Primary HTS)]; type: functional
# Chaperone protein dnaK = Chaperone protein dnaK (Escherichia coli, UniProt C3TRK2); assay: DnaK beta-domain binding affinity, SAR follow-up, orthogonal assay for DnaK modulator project, biophysical, isothermal titration calorimetry, full-length DnaK (AID 1495)
# [26] = inhibitors of firefly luciferase expression or activity, dose response, H4 neuroglioma cells, luminescence (AID 1990); type: functional, cell-based
# [27] = biological target: Voltage-dependent T-type calcium channel subunit alpha-1H (Homo sapiens, UniProt O95180); type: functional;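 note: channel activity triggered by adding a high calcium stimulation buffer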
# [28] = inhibitors of SNCA 5'UTR-driven reporter translation, confirmation, H4 neuroglioma cells, luminescence (AID 1988); type: functional, cell-based
# [29] = biological target: T4, Dual specificity protein phosphatase 3; assay: VHR1 inhibitor Ki determination, SAR follow-up, biochemical, colorimetric (AID 2004)
# [30] = biological target: Lysosomal acid glucosylceramidase (Homo sapiens, UniProt P04062); assay: Dose response cell-based high throughput screening assay to identify enhancers of beta-glucosidase activity. [Related pubchem assays: 784 ]; type: functional
# Chain of Lysosomal acid glucosylceramidase (P04062 whole entry): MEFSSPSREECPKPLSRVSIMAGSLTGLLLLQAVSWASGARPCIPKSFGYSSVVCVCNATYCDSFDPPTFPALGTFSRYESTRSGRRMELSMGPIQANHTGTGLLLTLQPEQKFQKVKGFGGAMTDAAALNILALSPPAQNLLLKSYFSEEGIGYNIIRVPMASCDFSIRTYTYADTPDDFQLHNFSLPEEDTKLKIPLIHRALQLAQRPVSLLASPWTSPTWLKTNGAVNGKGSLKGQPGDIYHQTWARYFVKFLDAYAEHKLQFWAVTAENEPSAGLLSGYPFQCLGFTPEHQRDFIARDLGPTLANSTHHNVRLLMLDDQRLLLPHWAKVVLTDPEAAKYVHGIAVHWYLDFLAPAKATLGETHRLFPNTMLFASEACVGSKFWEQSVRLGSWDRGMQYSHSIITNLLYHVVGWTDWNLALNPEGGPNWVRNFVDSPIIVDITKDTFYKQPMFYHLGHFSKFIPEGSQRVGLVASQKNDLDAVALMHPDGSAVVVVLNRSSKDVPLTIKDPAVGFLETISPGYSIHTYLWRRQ
# T4 sequence (P51452 whole entry): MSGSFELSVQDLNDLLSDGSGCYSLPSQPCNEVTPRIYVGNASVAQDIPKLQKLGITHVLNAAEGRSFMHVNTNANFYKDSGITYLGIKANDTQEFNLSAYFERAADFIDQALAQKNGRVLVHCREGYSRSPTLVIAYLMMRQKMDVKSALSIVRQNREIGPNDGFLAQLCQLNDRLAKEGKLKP
# Chain of Glyceraldehyde-3-phosphate dehydrogenase (P04406 whole entry): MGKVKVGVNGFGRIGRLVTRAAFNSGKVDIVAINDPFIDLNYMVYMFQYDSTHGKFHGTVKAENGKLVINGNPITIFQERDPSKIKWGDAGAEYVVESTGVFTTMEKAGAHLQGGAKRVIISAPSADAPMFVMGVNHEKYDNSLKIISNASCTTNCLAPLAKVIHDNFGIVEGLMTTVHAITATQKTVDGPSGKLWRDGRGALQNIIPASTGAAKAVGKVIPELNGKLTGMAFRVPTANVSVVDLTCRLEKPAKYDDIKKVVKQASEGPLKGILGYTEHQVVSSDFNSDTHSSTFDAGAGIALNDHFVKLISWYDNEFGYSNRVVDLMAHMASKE
# Chain of Acyl-homoserine lactone acylase PvdQ (Q9I194 24-193 limits assumed): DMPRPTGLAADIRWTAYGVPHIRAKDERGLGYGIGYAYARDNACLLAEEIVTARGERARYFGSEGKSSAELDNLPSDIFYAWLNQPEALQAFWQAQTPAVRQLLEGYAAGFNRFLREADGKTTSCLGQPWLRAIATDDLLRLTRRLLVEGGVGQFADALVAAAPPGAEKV
# Chain of Acyl-homoserine lactone acylase PvdQ (Q9I194 217-762 limits assumed): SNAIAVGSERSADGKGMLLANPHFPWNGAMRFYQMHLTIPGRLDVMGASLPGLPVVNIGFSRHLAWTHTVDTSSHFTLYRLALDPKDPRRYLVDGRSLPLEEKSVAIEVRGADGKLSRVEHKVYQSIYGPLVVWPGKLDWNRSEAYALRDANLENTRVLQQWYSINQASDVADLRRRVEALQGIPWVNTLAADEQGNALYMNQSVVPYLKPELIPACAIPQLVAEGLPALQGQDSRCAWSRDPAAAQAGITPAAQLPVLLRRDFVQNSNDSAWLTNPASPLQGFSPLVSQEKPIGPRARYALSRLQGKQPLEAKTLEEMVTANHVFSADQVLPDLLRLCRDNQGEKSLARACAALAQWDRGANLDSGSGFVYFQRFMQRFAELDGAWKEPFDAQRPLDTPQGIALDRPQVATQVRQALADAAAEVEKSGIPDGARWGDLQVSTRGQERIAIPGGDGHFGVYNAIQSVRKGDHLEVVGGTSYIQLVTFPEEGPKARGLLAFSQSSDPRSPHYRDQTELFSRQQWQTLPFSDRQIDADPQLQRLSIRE
# Chain of Chaperone protein dnaK (C3TRK2 whole entry): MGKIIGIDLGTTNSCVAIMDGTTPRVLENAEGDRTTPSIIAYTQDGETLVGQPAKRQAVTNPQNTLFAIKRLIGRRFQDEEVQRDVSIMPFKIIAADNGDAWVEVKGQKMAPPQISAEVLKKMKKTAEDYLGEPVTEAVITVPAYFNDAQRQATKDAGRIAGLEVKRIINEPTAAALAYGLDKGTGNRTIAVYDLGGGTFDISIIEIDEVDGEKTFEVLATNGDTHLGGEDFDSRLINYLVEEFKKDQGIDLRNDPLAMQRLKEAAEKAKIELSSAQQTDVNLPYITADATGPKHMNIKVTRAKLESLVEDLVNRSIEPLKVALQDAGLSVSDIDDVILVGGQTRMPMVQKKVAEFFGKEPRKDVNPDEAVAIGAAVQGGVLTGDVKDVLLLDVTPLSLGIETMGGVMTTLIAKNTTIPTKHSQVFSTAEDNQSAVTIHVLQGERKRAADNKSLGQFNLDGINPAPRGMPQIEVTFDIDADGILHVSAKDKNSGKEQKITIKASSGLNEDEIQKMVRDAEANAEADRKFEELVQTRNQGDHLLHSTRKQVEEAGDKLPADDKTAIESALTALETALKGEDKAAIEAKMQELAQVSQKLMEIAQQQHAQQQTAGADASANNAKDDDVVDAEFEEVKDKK
# Chain of Intestinal-type alkaline phosphatase (P09923 whole entry): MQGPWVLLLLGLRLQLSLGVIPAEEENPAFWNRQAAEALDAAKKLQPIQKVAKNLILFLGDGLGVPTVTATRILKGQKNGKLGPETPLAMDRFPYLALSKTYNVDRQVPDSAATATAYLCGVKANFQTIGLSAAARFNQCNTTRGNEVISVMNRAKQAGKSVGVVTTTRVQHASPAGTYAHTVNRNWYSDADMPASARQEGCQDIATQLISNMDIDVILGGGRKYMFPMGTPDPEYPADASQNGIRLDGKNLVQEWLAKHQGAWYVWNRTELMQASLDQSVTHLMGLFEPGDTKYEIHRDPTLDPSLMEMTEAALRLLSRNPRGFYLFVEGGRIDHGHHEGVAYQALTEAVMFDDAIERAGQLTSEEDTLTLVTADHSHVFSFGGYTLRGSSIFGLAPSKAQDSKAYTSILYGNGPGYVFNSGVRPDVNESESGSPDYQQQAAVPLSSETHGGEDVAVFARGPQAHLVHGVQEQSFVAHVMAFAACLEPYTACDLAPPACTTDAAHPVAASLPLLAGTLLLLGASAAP
# Chain of Induced myeloid leukemia cell differentiation protein Mcl-1 (Q07820 whole entry): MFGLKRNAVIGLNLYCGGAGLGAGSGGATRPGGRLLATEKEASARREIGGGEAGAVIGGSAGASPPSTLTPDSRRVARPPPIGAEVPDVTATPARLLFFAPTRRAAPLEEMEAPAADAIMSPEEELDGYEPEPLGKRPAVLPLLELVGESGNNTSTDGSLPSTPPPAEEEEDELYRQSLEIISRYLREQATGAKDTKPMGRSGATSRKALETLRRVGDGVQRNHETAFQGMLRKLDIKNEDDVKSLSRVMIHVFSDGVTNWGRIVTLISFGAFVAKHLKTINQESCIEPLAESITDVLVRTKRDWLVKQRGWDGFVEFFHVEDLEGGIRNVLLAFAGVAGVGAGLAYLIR
# Chain of Melanin-concentrating hormone receptor 1 (Q99705 whole entry): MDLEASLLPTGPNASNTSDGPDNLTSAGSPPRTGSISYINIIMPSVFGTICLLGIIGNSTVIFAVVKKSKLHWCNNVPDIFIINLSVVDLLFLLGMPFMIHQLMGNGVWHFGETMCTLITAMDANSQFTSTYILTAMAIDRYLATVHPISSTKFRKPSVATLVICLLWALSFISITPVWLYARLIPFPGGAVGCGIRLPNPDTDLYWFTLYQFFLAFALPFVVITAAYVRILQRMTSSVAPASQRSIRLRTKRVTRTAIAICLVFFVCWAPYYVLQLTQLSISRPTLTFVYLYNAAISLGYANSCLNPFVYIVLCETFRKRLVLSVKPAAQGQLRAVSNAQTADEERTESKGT
# Chain of Nucleotide-binding oligomerization domain-containing protein 2 (Q9HC29 whole entry, the tested form may be a part): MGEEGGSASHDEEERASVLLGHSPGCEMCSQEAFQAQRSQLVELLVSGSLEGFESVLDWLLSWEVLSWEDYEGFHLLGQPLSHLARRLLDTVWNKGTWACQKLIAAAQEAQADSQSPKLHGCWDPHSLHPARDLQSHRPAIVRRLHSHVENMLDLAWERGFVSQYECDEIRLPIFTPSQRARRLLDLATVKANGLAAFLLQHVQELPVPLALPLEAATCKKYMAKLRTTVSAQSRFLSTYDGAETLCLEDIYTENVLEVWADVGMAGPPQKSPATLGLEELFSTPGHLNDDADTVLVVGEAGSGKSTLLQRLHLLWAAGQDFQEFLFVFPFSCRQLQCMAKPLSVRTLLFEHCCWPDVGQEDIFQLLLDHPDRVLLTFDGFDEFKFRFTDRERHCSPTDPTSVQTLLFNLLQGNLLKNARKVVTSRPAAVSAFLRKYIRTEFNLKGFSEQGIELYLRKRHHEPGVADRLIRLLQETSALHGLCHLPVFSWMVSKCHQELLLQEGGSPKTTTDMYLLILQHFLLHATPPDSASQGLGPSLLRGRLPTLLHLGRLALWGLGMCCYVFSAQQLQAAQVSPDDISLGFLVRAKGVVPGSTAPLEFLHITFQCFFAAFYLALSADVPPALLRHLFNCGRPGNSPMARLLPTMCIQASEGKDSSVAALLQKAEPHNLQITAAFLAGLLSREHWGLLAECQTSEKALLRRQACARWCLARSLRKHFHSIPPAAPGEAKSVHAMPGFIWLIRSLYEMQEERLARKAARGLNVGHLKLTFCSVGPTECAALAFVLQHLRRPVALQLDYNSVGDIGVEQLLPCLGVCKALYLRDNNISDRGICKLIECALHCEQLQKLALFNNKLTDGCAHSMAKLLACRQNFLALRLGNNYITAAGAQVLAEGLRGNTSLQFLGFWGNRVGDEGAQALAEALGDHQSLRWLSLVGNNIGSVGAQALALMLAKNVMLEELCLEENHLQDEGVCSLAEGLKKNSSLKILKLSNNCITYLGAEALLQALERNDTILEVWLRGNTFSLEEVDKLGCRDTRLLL
smiles,measurement,setting,value
Cc1ccc2c(c1Cl)NC(C(=O)O)C1CC(Sc3ccccc3[N+](=O)[O-])C(Cl)C21 (stereo not drawn),IC50,[1],13.7 µM (active)
same,IC50,[2],2.97 µM (active)
same,IC50,[3],2.96 µM (active)
same,IC50,Genome polyprotein,76.9 µM (active)
same,IC50,[4],> 100 µM (not active)
same,IC50,[5],42.6 µM (active)
CC(C)N=C(NC#N)SCc1ccccc1F,AC50,[6],10.8 µM (active)
O=C(Cc1coc2ccc3ccccc3c12)NCc1ccccc1,IC50,[7],> 100 µM (inactive)
CCOc1ccc(-n2c(N)c(C(=O)NCc3ccco3)sc2=S)cc1,IC50,[8],> 100 µM (inactive)
same,IC50,[9],> 100 µM (inactive)
CCc1c(O)nc(N)nc1Nc1ccccc1Cl,AC50,[10],7.32 µM (active)
C#CCSc1nc2c(c(=O)[nH]1)CCC2,IC50,Neutrophil collagenase,> 39.8 µM (active)
same,IC50,Collagenase 3,> 39.8 µM (inactive)
CCNC(=O)C1(C)CCCN(Cc2cccc(Oc3ccccc3)c2)C1 (stereo not drawn),AC50,Trypanosoma cruzi,45.6 µM (active)
COC(=O)CN(Cc1cccs1)C(=O)c1cccnc1,EC50,[11],> 20 µM (inactive)
COc1ccc(NC(=O)c2c(Nc3ccccc3)sc(C(=O)c3ccc(F)cc3)c2N)cc1,IC50,HEK293 [12],> 20 µM (inactive)
same,AC50,INS1,2.91 µM (active)
same,IC50,HEK293 [13],> 20 µM (inactive)
same,IC50,HEK293 [14],> 20 µM (inactive)
same,EC50,HEK293 [15],> 20 µM (inactive)
same,AC50,[16],2.46 µM (active)
same,IC50,HEK293 [17],> 20 µM (inactive)
same,EC50,[18],> 20 µM (inactive)
same,AC50,Paired box protein Pax-8,1.69 µM (active)
Cc1ccc(-n2ccc(Cl)c(Cl)c2=O)cc1,IC50,[19],> 20 µM (inactive)
same,IC50,[20],> 20 µM (inactive)
N#Cc1cc2c(nc1SCC(=O)Nc1ccc(Cl)cc1)C1CCN2CC1,EC50,[21],27.9 µM (active)
same,EC50,H4,> 120 µM (not active)
same,EC50,[22],2.33 µM (active)
same,EC50,[23],5.38 µM (active)
same,EC50,[24],2.86 µM (active)
same,EC50,[25],20.1 µM (active)
O=C(c1cccs1)N1CCN(CCO)CC1,Kd,Chaperone protein dnaK,16.7 µM (inactive)
Cc1ccc(Cn2nc(C)c(NC(=O)c3cc(-c4ccc5c(c4)OCO5)on3)c2C)cc1,EC50,[26],> 120 µM (not active)
same,EC50,[27],30 µM (active)
same,EC50,[28],14 µM (active)
O=C(O)C(Cc1ccccc1)NC(=S)Nc1ccccc1 (stereo not drawn),Ki,[29],28.8 µM (inactive)
CCCCN(CC)CCCNC(=O)c1cc2cc3ccc(OC)cc3nc2o1,EC50,[30],> 50 µM (not active)
